This passage reports neurite outgrowth results from US9089565B2, “Compositions and methods for causing neurite outgrowth” (MEDICAL RESEARCH COUNCIL, priority 2009, dated 2015).

The experiment concerns RA-treated SH-SY5Y cells. The experiment in a line: Neurite outgrowth of RA-treated SH-SY5Y cells. Type of experiment: cell-based, human. The procedure:
FIG. 1. BDNF promotes neurite outgrowth of RA-treated SH-SY5Y, and induces phosphorylation of NgR1. (A) SH-SY5Y cells were incubated with indicated reagents. Cell images were taken with phase contrast microscopy. (B) Number of cells extending neurite-like structures of more than 40 μm and total cell number were counted from images taken in (A). More than 300 cells were examined in each sample. The proportion of cells extending neurite-like structures of more than 40 μm was indicated as a percentage of total cell number. An average of three experiments is shown. Error bars indicate S. E. between experiments. Data were analysed with student's t test. (C) Whole cell extracts were prepared from RA-treated SH-SY5Y cells after incubation with or without BDNF for 24 hours, and were analysed by SDS-PAGE. Immunoblotting was performed with the indicated antibodies. (D) Whole cell extract prepared from cells treated with both RA and BDNF was incubated with the indicated reagents for 1 hour at 37° C. Immunoblotting was performed with anti-NgR1 antibody. (E) RA-treated SH-SY5Y cells were incubated with BDNF in the presence or absence of one of the following: PKC inhibitor—500 nM Gö6983 or Gö6976; PKA inhibitor—2 μM KT5720 or a PKA inhibitor peptide 14-22; or either 500 nM or 1 μM of a casein kinase inhibitor, for 24 hours. Whole cell extracts prepared from these cells were analysed by SDS-PAGE. Immunoblotting was performed with anti-NgR1 antibody.
FIG. 2. CK2 promotes neurite outgrowth of RA-treated SH-SY5Y cells without BDNF. (A) RA-treated SH-SY5Y cells were incubated with the indicated reagents for 24 hours. Cell images were taken with phase contrast microscopy. (B) Number of cells extending neurite-like structures of more than 40 μm and total cell number were counted from images taken in (A). More than 300 cells were examined in each sample. Calculation was done as FIG. 1B. Result of student's t test between RA alone and RA+CK II+ATP was p=0.0014. (C) Myc-tagged wild type and mutant versions of NgR1 were over-expressed in SH-SY5Y cells. The cells were treated with RA, CK2 and ATP. Over-expressed NgR1-Myc was detected with anti-Myc antibody. (D) SH-SY5Y cells over-expressing 281S/A mutant NgR1-Myc were incubated with RA and NEP1-40. (E) SH-SY5Y cells over-expressing 281S/D mutant NgR1-Myc were treated as (C).
After fixation, beta-tubulin III was detected with anti-beta-tubulin III antibody. B, Wild type or 281S/A mutant NgR1-Myc was over-expressed in SH-SY5Y cells. After 5 days treatment with RA, these cells were incubated with 500 U/ml PKA and 500 nM (74 kBq/ml) ATP. Then, NgR1-Myc was immuno-precipitated and analysed with SDS-PAGE. […] NgR1-Myc was detected with anti-Myc antibody. […]

Setting [1] is: RA-treated SH-SY5Y, substance alone, 24 hours.

On to `Nc1ncnc2c1ncn2[C@@H]1O[C@H](COP(=O)(O)OP(=O)(O)OP(=O)(O)O)[C@@H](O)[C@H]1O` [ATP], for which the neurite outgrowth entry under setting [1] was “Neither addition of ATP alone nor CK2 alone to the culture medium induced neurite outgrowth”.
Take “NEP1-40: a competitive inhibitor of Nogo-66 binding to NgR1 (MEDLDQSPLVSSSDSPPRPQPAFKYQFVREPEDEEEEEEE; Nogo-66 residues 1-40; UniProt Q9NQC3 1-40, looked up, fragment) [reference compound]”: the neurite outgrowth result was “promoted neurite outgrowth” under setting [1] and “showed neurite outgrowth” (cells over-expressing 281S/A mutant NgR1, NEP1-40 for 24 hours).

B1: BDNF: brain-derived neurotrophic factor, member of the neurotrophin nerve growth factor family, purchased from Merck (protein, UniProt P23560 19-247, looked up)
Neurotrophic factor BDNF …: APMKEANIRGQGGLAYPGVRTHGTLESVNGPKAGSRGLTSLADTFEHVIEELLDEDQKVRPNEENNKDADLYTSRVMLSSQVPLEPPLLFLLEEYKNYLDAANMSMRVRRHSDPARRGELSVCDSISEWVTAADKKTAVDMSGGTVTVLEKVPVSKGQLKQYFYETKCNPMGYTKEGCRGIDKRHWNSQCRTTQSYVRALTMDSKKRIGWRFIRIDTSCVCTLTIKRGR
Turning to B1, the neurite outgrowth entry under setting [1] is “efficient neurite outgrowth”.
